Data on three compounds can be found in patent publication US20250092039A1, “GLUTARIMIDE-CONTAINING PAN-KRAS-MUTANT DEGRADER COMPOUNDS AND USES THEREOF” (Tiger Biotherapeutics Inc., priority 2022, published 2025).

Where two headings read alike, the source gives them in different places.

Data set [1] can be described thus: Pharmacokinetics following single intravenous and oral gavage dosing (AUC0-24h). The format is in vivo. The following applies: mouse, plasma; single oral dose 30 mg/Kg, male CD-1 mice. Put shortly:
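Male CD-1 mice (3 per route) given a single iv (5 mL/kg) or oral gavage (10 mL/kg) dose in 10% DMSO/30% PEG400/60% aqueous 20% hydroxypropyl-β-cyclodextrin. Plasma sampled to 24 h and measured by LC/MS/MS. PK parameters derived by non-compartmental analysis.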

Another data set has as its system SW620 cells. The data set can be described thus: 3D cell growth inhibition of SW620 cells carrying endogenous KRAS G12V mutation (CellTiter-Glo 3D, GI50). The format is cell-based. The following applies: Homo sapiens, SW-620, 144 h, read-out: SW620 3D cell growth GI50. Put shortly: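 SW620 cells (endogenous KRAS G12V) grown in 3D were dosed next day with compound from DMSO stocks at various concentrations, then incubated 6 days at 37° C.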

The next data set deals with KRAS-G12V/RAF1 (Homo sapiens (Human), UniProt P01116, G12V). The data set can be described thus: KRAS/RAF1 binding inhibition assay (AlphaScreen). In a few lines: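 Binding of GppNHp-loaded KRAS G12V to the RAF1 RBD was measured by AlphaScreen with test compound present in 2% DMSO (final), 60 min incubation at 4° C. Signals were converted to % inhibition versus DMSO, and IC50 was obtained by variable-slope nonlinear regression.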
Chain of KRAS-G12V/RAF1 (P01116-2 other isoform, or with tags, fused parts or gaps G12V): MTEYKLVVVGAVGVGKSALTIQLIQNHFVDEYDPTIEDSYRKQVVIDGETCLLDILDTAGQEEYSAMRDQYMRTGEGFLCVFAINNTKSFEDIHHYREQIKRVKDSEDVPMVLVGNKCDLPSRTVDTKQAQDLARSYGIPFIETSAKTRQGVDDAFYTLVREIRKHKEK
For orientation: Alpha assays give light when donor and acceptor beads are brought close together.

A further data set has as its target KRAS G12V (Homo sapiens (Human), UniProt P01116, G12V). The experiment in a line: KRAS G12V degradation in SW620 cells (Western blot, DC50). Type of data set: cell-based. The following applies: 24 hours. Put shortly: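 SW620 cells (homozygous KRAS G12V) were treated with compound for 24 hours at 37° C. KRAS in lysates was measured by Western blot with fluorescent secondary antibodies and expressed relative to DMSO vehicle (100%). DC50 came from a four-parameter variable-slope dose-response fit.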
In general terms: A western blot detects proteins with antibodies after separation by electrophoresis.

Chain of KRAS G12V (P01116-2 other isoform, or with tags, fused parts or gaps G12V): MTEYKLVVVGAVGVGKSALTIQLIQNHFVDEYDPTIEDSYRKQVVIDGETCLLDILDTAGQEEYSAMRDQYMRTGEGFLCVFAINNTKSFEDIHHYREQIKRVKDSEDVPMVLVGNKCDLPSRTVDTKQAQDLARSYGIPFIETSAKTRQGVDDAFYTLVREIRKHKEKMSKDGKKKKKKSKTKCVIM

Consider `CCc1c(F)ccc2cc(O)cc(-c3ncc4c(N5CCC[C@@](C)(O)C5)nc(OCC5(CN6CCC7(CC6)CC(CN6CCN(c8cc(F)c(C9CCC(=O)NC9=O)c(F)c8)CC6)C7)CC5)nc4c3F)c12` (stereo partly drawn) [Compound 49, 3-(4-(4-((7-((1-(((7-(8-ethyl-7-fluoro-3-hydroxynaphthalen-1-yl)-8-fluoro-4-((R)-3-hydroxy-3-methylpiperidin-1-yl)pyrido[4,3-d]pyrimidin-2-yl)oxy)methyl)cyclopropyl)methyl)-7-azaspiro[3.5]nonan-2-yl)methyl)piperazin-1-yl)-2,6-difluorophenyl)piperidine-2,6-dione], for which, in data set [1], the area under the curve AUC(0-t) (commonly exposure summed from dosing to a finite time, without extrapolation to infinity) is 3170 ng·h/mL. Besides, the 50% growth inhibitory concentration (GI50) – broadly, the concentration giving 50% growth inhibition – in the data set on SW620 cells (SW620 cells, 6 days) was less than 10 nM. On KRAS-G12V/RAF1, the IC50 (in general, the concentration that gives 50% inhibition) is 20 to 200 nM. Moreover, the 50% degradation concentration (DC50) (in general, the concentration at which degradation of the target reaches its halfway point) at KRAS G12V was less than 1 nM.

Compound `CCc1c(F)ccc2cc(O)cc(-c3ncc4c(N5CCC[C@@](C)(O)C5)nc(OCC5(CN6CCC(C)(CN7CCN(c8cc(F)c(C9CCC(=O)NC9=O)c(F)c8)CC7)CC6)CC5)nc4c3F)c12` (stereo partly drawn) [Compound 48, 3-(4-(4-((1-((1-(((7-(8-ethyl-7-fluoro-3-hydroxynaphthalen-1-yl)-8-fluoro-4-((R)-3-hydroxy-3-methylpiperidin-1-yl)pyrido[4,3-d]pyrimidin-2-yl)oxy)methyl)cyclopropyl)methyl)-4-methylpiperidin-4-yl)methyl)piperazin-1-yl)-2,6-difluorophenyl)piperidine-2,6-dione] had an AUC(0-t) in data set [1] of 17200 ng·h/mL. Besides, the GI50 in the data set with SW620 cells is less than 10 nM. Besides, at KRAS-G12V/RAF1, the IC50 lay in the range of 20 to 200 nM. On KRAS G12V, this compound registered a 50% degradation concentration (DC50) of 1 to 10 nM.

Regarding `CCc1c(F)ccc2cc(O)cc(-c3ncc4c(N5CCC[C@@](C)(O)C5)nc(OCC5(CN6CC7(CCC(N8CCN(c9cc(F)c(C%10CCC(=O)NC%10=O)c(F)c9)CC8)CC7)C6)CC5)nc4c3F)c12` (stereo partly drawn) [Compound 60, 3-(4-(4-(2-((1-(((7-(8-ethyl-7-fluoro-3-hydroxynaphthalen-1-yl)-8-fluoro-4-((R)-3-hydroxy-3-methylpiperidin-1-yl)pyrido[4,3-d]pyrimidin-2-yl)oxy)methyl)cyclopropyl)methyl)-2-azaspiro[3.5]nonan-7-yl)piperazin-1-yl)-2,6-difluorophenyl)piperidine-2,6-dione], the AUC(0-t) in data set [1] stood at 1780 ng·h/mL. Moreover, in the data set with SW620 cells (SW620 cells, 6 days), the GI50 was less than 10 nM. Also, the IC50 at KRAS-G12V/RAF1 lay within 20 to 200 nM. On KRAS G12V, this compound had a DC50 of less than 1 nM.
